ChEMBL document CHEMBL1201862, “PubChem BioAssay data set” (2004)
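1) Cells in 96-well plates. 2) Compound, 48 h, 5 concentrations. 3) Linear interpolation between surrounding doses. 4) Unreached endpoint = highest concentration. Here, GI50 denotes the concentration required for 50% inhibition of growth.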 Calls of active or inactive are those of the source. Cut-off read from the data, not from the text of the source: active = GI50 up to about 1.1 µM and inactive = higher.

Key:
Assay in all cases: growth of human tumour cells (NCI), 48 h
Malme-3M = tested on: Malme-3M
A498 = tested on: A498
RPMI-8226 = tested on: RPMI-8226
K562 = tested on: K562
NCI-H522 = tested on: NCI-H522
ACHN = tested on: ACHN
OVCAR-8 = tested on: OVCAR-8
UACC-257 = tested on: UACC-257
HCT-15 = tested on: HCT-15
SNB-75 = tested on: SNB-75
UACC-62 = tested on: UACC-62
SF-268 = tested on: SF-268
HT-29 = tested on: HT-29
OVCAR-5 = tested on: OVCAR-5
LOX IMVI = tested on: LOX IMVI
PC-3 = tested on: PC-3
DU-145 = tested on: DU-145
MCF7 = tested on: MCF7
Hs-578T = tested on: Hs-578T

Row | SMILES | GI50 (Malme-3M) | GI50 (A498) | GI50 (RPMI-8226) | GI50 (K562) | GI50 (NCI-H522) | GI50 (ACHN) | GI50 (OVCAR-8) | GI50 (UACC-257) | GI50 (HCT-15) [µM] | GI50 (SNB-75) | GI50 (UACC-62) | GI50 (SF-268) | GI50 (HT-29) | GI50 (OVCAR-5) | GI50 (LOX IMVI) | GI50 (PC-3) | GI50 (DU-145) | GI50 (MCF7) | GI50 (Hs-578T)
1 | O=C(CN1C(=O)c2ccccc2C1=O)OC1C=CCCC1 (centres undefined) | > 100 µM (inactive) | > 100 µM (inactive) | > 100 µM (inactive) | > 100 µM (inactive) | 72.8 µM (inactive) | > 100 µM (inactive) | > 100 µM (inactive) | > 100 µM (inactive) | > 100 | > 100 µM (inactive) | > 100 µM (inactive) | > 100 µM (inactive) |  |  |  |  |  |  | 
2 | C=CCc1ccc(O)c(-c2cc(C3Oc4c(-c5cc(CC=C)ccc5O)cc(O)cc4[C@@H]3CO)ccc2O)c1 (some centres undefined) | 50.4 µM (inactive) | 14.8 µM (inactive) | 24.9 µM (inactive) | 15.6 µM (inactive) | 20.1 µM (inactive) | 36.2 µM (inactive) | 42.4 µM (inactive) | 73.5 µM (inactive) | 15.8 | 45.9 µM (inactive) | 30.3 µM (inactive) | 30.3 µM (inactive) | 33.3 µM (inactive) | 56.1 µM (inactive) | 16.9 µM (inactive) |  |  |  | 
3 | COC(=O)C(=O)C(C(=O)C(=O)Nc1ccccc1[N+](=O)[O-])c1nc2ccc([N+](=O)[O-])cc2nc1O (centres undefined) | > 100 µM (inactive) | > 100 µM (inactive) | > 100 µM (inactive) | > 100 µM (inactive) | > 100 µM (inactive) | > 100 µM (inactive) | > 100 µM (inactive) | > 100 µM (inactive) | > 100 | > 100 µM (inactive) | > 100 µM (inactive) | > 100 µM (inactive) | > 100 µM (inactive) | > 100 µM (inactive) | > 100 µM (inactive) |  |  |  | 
4 | CCCCC1=C(C(=O)N2CCOCC2)C2(OCCO2)C1=O | 20.6 µM (inactive) | 27.8 µM (inactive) |  |  | 15.7 µM (inactive) | 17.4 µM (inactive) | 23.2 µM (inactive) | 28.9 µM (inactive) | 18.2 | 43.5 µM (inactive) | 34.9 µM (inactive) | 24 µM (inactive) | 18.8 µM (inactive) | 16.9 µM (inactive) | 12.8 µM (inactive) | 31.8 µM (inactive) | 33 µM (inactive) | 44.6 µM (inactive) | 31.7 µM (inactive)
5 | C[N+](C)(C)C1CC([N+](C)(C)C)C2c3ccccc3C21 (centres undefined) | > 100 µM (inactive) | > 100 µM (inactive) | > 100 µM (inactive) | > 100 µM (inactive) | > 100 µM (inactive) | > 100 µM (inactive) | > 100 µM (inactive) | > 100 µM (inactive) | > 100 | > 100 µM (inactive) | > 100 µM (inactive) | > 100 µM (inactive) | > 100 µM (inactive) | > 100 µM (inactive) | > 100 µM (inactive) |  |  |  | 
6 | CN(/N=C\c1ccnc2ccccc12)c1ccccc1 | 23.8 µM (inactive) | 21 µM (inactive) | > 100 µM (inactive) | 20.6 µM (inactive) | 17.8 µM (inactive) | 31 µM (inactive) | 38.3 µM (inactive) | 20 µM (inactive) | 17.1 | 32.5 µM (inactive) | 19.5 µM (inactive) | 56.1 µM (inactive) | 18.9 µM (inactive) | 16.8 µM (inactive) | 17.2 µM (inactive) |  |  |  | 
7 | CCCCCCCCCCCCCCCC(=O)NCC(COP(=O)([O-])OCC[N+](C)(C)C)OCC (centres undefined) | 16.9 µM (inactive) | > 10 µM (inactive) | 2.9 µM (inactive) |  |  | 15 µM (inactive) | 4.42 µM (inactive) | 15.7 µM (inactive) | 6.4 | 11 µM (inactive) | 9.35 µM (inactive) | 12.8 µM (inactive) | 5.22 µM (inactive) | 10 µM (inactive) | 16.3 µM (inactive) |  |  |  | 
8 | O=c1c2ccccc2nc(-c2ccccc2Cl)n1NC1OC(CO)C(O)C(O)C1O (centres undefined) | > 100 µM (inactive) | > 100 µM (inactive) | > 100 µM (inactive) | > 100 µM (inactive) | > 100 µM (inactive) | > 100 µM (inactive) | > 100 µM (inactive) | > 100 µM (inactive) | > 100 | 97.9 µM (inactive) | > 100 µM (inactive) | > 100 µM (inactive) | > 100 µM (inactive) | > 100 µM (inactive) |  |  |  |  | 
9 | c1ccc(SC(Sc2ccccc2)=C2CCC2)cc1 |  | > 100 µM (inactive) | > 100 µM (inactive) | > 100 µM (inactive) | > 100 µM (inactive) | > 100 µM (inactive) | > 100 µM (inactive) | > 100 µM (inactive) | > 100 | 98.4 µM (inactive) | 65 µM (inactive) | > 100 µM (inactive) |  |  | > 100 µM (inactive) |  |  |  | 
10 | O=C(O)CSc1nnc(-c2ccccc2O)[nH]1 | > 100 µM (inactive) | > 100 µM (inactive) | > 100 µM (inactive) | > 100 µM (inactive) |  | > 100 µM (inactive) | > 100 µM (inactive) | > 100 µM (inactive) | > 100 | > 100 µM (inactive) | > 100 µM (inactive) | > 100 µM (inactive) | > 100 µM (inactive) | > 100 µM (inactive) | > 100 µM (inactive) |  |  |  | 
11 | O=[N+]([O-])c1cc(/C=N/NS(=O)(=O)c2ccc(F)cc2)c(O)c([N+](=O)[O-])c1 | 63.1 µM (inactive) | 29.9 µM (inactive) | 27.7 µM (inactive) | 41.2 µM (inactive) | 21.2 µM (inactive) | 40.5 µM (inactive) | 24.8 µM (inactive) | 42.3 µM (inactive) | 26.5 | 25.9 µM (inactive) | 46.3 µM (inactive) | 40.1 µM (inactive) | 22.3 µM (inactive) | > 100 µM (inactive) | 39.5 µM (inactive) |  |  |  | 
12 | CCC12C=CCN(CCc3c([nH]c4ccccc34)/C=C\1)C2 (centres undefined) | > 100 µM (inactive) | > 100 µM (inactive) | > 100 µM (inactive) | > 100 µM (inactive) | > 100 µM (inactive) | > 100 µM (inactive) |  | > 100 µM (inactive) | > 100 | 44.6 µM (inactive) | > 100 µM (inactive) | > 100 µM (inactive) | > 100 µM (inactive) |  | > 100 µM (inactive) |  |  |  | 
13 | CC1=NN(C(=O)Nc2ccccc2)C(=O)C2CCC(=O)N12 (centres undefined) |  | > 100 µM (inactive) | > 100 µM (inactive) | > 100 µM (inactive) |  | > 100 µM (inactive) | > 100 µM (inactive) | > 100 µM (inactive) | > 100 | 84.3 µM (inactive) | > 100 µM (inactive) | > 100 µM (inactive) |  |  | > 100 µM (inactive) |  |  |  | 
14 | COc1cc2cc(C(=O)N3CC(CCl)c4c3cc(O)c3ccccc43)[nH]c2c(OC)c1OC (centres undefined) | < 0.005 µM (active) | < 0.005 µM (active) | < 0.005 µM (active) | < 0.005 µM (active) | < 0.005 µM (active) | < 0.005 µM (active) | < 0.005 µM (active) | < 0.005 µM (active) | < 0.005 | < 0.005 µM (active) | < 0.005 µM (active) | < 0.005 µM (active) | < 0.005 µM (active) | < 0.005 µM (active) | < 0.005 µM (active) | < 0.005 µM (active) | < 0.005 µM (active) |  | < 0.005 µM (active)
